Consider one compound from ChEMBL document CHEMBL6087446, “Hypoxia Activated Nitric Oxide Donor Compounds for the Prevention and Treatment of Myocardial Hypoxia-Induced Injury” (J Med Chem, 2025).

The source made the active and inactive calls. The rule behind the calls is not given here.

A word on the Tmax: it is the time at which the peak concentration occurs. The half-life is the time in which the quantity being followed falls by half. Low readings indicate rapid decline, high ones slow decline. What is called AUC(0-t) is the area under the concentration-time curve up to a stated or last time point. Low readings indicate less exposure, high ones more exposure.

Data set [1] relates to Mus musculus. As to the kind of experiment: Prevention of myocardial hypoxia injury in isoproterenol-induced male C57 mouse myocardial injury model assessed as antihypertrophic effect at 16 mg/kg, ip once daily for 3 consecutive days. The format is functional, organism-based. Conditions: time 3.0 day.
The test system of data set [2] is Mus musculus. The data set is described as follows: Prevention of myocardial hypoxia injury in isoproterenol-induced male C57 mouse myocardial injury model assessed as pathological myocardial change by measuring improvement in disorganized cell arrangement at 8 to 16 mg/kg, ip once daily for 3 consecutive days by hematoxylin and eosin staining based analysis. The format is functional, organism-based. Conditions: dose 8-16 mg/kg, time 3.0 day.

Data set [3] concerns Mus musculus. As to the kind of experiment: Prevention of myocardial hypoxia injury in isoproterenol-induced male C57 mouse myocardial injury model assessed as prevention of lamellar collagen fiber deposition at 8 to 16 mg/kg, ip once daily for 3 consecutive days by Masson staining based analysis. It counts as functional, organism-based. The settings on record: dose 8-16 mg/kg, time 3.0 day.

Data set [4] relates to Mus musculus. As to the kind of experiment: Prevention of myocardial hypoxia injury in isoproterenol-induced male C57 mouse myocardial injury model assessed as pathological myocardial change by absence of infarction areas at 8 to 16 mg/kg, ip once daily for 3 consecutive days by hematoxylin and eosin staining based analysis. It counts as functional, organism-based. The settings on record: dose 8-16 mg/kg, time 3.0 day.

The test system of data set [5] is Mus musculus. The data set is described as follows: Prevention of myocardial hypoxia injury in isoproterenol-induced male C57 mouse myocardial injury model assessed as pathological myocardial change by heart sections at 8 to 16 mg/kg, ip once daily for 3 consecutive days by hematoxylin and eosin staining based analysis. Conditions: dose 8-16 mg/kg, time 3.0 day. It counts as functional, organism-based.

Data set [6] deals with Mus musculus. As to the kind of experiment: Prevention of myocardial hypoxia injury in isoproterenol-induced male C57 mouse myocardial injury model assessed as increase in NO level in heart tissue at 8 mg/kg, ip once daily for 3 consecutive days. It counts as functional, organism-based. Conditions: time 3.0 day.
In data set [7] the test system is H9c2. The data set is described as follows: Induction of NO release in rat H9c2 cells under hypoxia condition at 10 uM by Griess reagent assay relative to control. The format is functional. A general note: Griess reagent forms a coloured azo dye with nitrite.
Data set [8] is described as follows: Tmax in female Balb/c mouse at 8 mg/kg, ip measured up to 24 hrs by LC-MS/MS analysis. Conditions: in vivo. It counts as ADME, organism-based.
The subject of data set [9] is H9c2. The data set is described as follows: Induction of NO release in rat H9c2 cells under normoxic condition at 10 uM measured for 4 hrs by Griess reagent assay relative to control. The format is functional.
A short description of data set [10]: Half life in female Balb/c mouse at 8 mg/kg, ip measured up to 24 hrs by LC-MS/MS analysis. It counts as ADME, organism-based. Conditions: in vivo.
The subject of data set [11] is Mus musculus. The data set is described as follows: Prevention of myocardial hypoxia injury in isoproterenol-induced male C57 mouse myocardial injury model assessed as decrease in myocardial size at 8 mg/kg, ip once daily for 3 consecutive days (reference value: 6.47 mm). The format is functional. The settings on record: time 3 day.
The test system of data set [12] is Mus musculus. The data set is described as follows: Prevention of myocardial hypoxia injury in isoproterenol-induced male C57 mouse myocardial injury model assessed as heart weight ratio at 8 mg/kg, ip once daily for 3 consecutive days (reference value: 0.60%). It counts as functional. The settings on record: time 3 day.
Data set [13] can be described thus: AUC (0 to last) in female Balb/c at 8 mg/kg, ip mouse measured up to 24 hrs by LC-MS/MS analysis. It counts as ADME, organism-based. The settings on record: in vivo.

For the compound `CN(N=O)c1ccc(OCc2ccc([N+](=O)[O-])c(F)c2)cc1`, the outcome in data set [1], in data set [2], in [3], in data set [4], in data set [5] and in data set [6] was Active. Besides, the Activity worked out at 26.54% in data set [7], 20% in data set [9], 2.53 mm in [11] and 0.54% in data set [12]. For the same compound, the Tmax in [8] was 2.08 h. This compound gave a half-life in [10] of 2.39 h. For the same compound, the AUC(0-t) at 24 h in [13] was found to be 626 ng·h/mL.
